These results are taken from patent publication US10479795B2 (Incyte Corporation, priority 2016, dated 2019).

The pIC50 is −log10 of the IC50, conventionally taken in molar units.

For test [1], the system named is Phosphorylated Ribosomal Protein S6 (RPS6). Briefly: THP-1 RPS6 ELISA Assay. The test is classed as cell-based, Human. The following applies: THP-1 cells, read-out: PI3Kγ_THP1_RPS6_ELISA IC50. In short, it runs like this:
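IC50 values come from a curve of percent inhibition against log compound concentration, using phospho-RPS6 ELISA (450 nm) on THP-1 lysates. Cells were serum-starved overnight, exposed to compound for 2 h at 37 °C, then challenged 15 min with 10 nM MCP-1.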
In general terms: An ELISA detects its analyte on a solid surface through an enzyme-linked reagent.

The target of test [2] is PI3Kγ (p110γ) Recombinant Human Protein (Homo sapiens (Human), UniProt P48736). As to the kind of experiment: PI3K-γ Scintillation Proximity Assay. In kind it is biochemical. The following applies: read-out: PI3Kγ IC50. In short, it runs like this: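 Radiometric SPA readout: […] bound to WGA beads after overnight shaking, IC50 derived from % activity of DMSO control. Reaction used human p110γ, 2 μM ATP, 20 μM PIP2, pH 6.7 MOPS buffer with MgCl2, DTT, CHAPS, 2% DMSO, room temperature.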
On the technique in general: Scintillation proximity formats need no separation of bound from free tracer.

Test [3] concerns the target PI3Kδ (p110δ/p85α) Recombinant Human Protein (Homo sapiens (Human), UniProt O00329). Briefly: PI3Kδ Scintillation Proximity Assay. The test is classed as biochemical. In short, it runs like this:
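Assay conditions: 2 μM ATP (radiolabelled), 20 μM PIP2, 3.4 nM PI3Kδ, 20 mM MOPS pH 6.7 with 10 mM MgCl2, 5 mM DTT, 0.03% CHAPS, 2 h at room temperature. Signal from bead-captured 33P product; IC50 versus solvent control.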

pIC50: −log10 of the molar value. Counter-ions that a name gives are not always drawn. Like-named read-outs stand apart in the source and are kept apart here. Bounds are passed on as bounds.

PI3Kγ (p110γ) Recombinant Human Protein, sequence (P48736 whole entry): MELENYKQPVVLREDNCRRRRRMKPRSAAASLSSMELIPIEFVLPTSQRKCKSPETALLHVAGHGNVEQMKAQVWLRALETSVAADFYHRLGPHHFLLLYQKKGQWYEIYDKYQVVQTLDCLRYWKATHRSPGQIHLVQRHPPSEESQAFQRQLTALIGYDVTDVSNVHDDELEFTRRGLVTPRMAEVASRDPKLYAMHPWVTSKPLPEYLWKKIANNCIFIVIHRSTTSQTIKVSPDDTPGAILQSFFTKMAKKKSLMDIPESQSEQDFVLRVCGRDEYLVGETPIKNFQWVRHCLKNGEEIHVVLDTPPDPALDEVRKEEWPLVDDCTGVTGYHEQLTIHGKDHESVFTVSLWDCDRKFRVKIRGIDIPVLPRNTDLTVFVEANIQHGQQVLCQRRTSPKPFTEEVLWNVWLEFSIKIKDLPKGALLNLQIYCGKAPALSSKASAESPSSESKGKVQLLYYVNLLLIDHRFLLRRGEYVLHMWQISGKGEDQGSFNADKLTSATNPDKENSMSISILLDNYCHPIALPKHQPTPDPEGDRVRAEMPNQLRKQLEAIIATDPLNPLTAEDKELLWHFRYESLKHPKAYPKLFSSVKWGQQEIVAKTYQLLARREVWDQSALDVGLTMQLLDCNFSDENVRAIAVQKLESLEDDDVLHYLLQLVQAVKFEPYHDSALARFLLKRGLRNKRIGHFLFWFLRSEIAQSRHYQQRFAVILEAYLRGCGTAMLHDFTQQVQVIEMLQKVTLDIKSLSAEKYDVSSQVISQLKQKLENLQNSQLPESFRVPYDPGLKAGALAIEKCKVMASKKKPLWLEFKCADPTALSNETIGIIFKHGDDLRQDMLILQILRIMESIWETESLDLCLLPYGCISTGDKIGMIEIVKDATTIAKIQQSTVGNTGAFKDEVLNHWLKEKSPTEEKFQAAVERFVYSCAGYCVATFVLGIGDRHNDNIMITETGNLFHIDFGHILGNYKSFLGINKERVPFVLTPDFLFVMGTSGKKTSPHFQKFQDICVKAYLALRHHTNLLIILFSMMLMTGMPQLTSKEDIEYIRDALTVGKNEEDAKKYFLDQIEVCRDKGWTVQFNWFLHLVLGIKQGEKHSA
PI3Kδ (p110δ/p85α) Recombinant Human Protein, sequence (O00329 whole entry): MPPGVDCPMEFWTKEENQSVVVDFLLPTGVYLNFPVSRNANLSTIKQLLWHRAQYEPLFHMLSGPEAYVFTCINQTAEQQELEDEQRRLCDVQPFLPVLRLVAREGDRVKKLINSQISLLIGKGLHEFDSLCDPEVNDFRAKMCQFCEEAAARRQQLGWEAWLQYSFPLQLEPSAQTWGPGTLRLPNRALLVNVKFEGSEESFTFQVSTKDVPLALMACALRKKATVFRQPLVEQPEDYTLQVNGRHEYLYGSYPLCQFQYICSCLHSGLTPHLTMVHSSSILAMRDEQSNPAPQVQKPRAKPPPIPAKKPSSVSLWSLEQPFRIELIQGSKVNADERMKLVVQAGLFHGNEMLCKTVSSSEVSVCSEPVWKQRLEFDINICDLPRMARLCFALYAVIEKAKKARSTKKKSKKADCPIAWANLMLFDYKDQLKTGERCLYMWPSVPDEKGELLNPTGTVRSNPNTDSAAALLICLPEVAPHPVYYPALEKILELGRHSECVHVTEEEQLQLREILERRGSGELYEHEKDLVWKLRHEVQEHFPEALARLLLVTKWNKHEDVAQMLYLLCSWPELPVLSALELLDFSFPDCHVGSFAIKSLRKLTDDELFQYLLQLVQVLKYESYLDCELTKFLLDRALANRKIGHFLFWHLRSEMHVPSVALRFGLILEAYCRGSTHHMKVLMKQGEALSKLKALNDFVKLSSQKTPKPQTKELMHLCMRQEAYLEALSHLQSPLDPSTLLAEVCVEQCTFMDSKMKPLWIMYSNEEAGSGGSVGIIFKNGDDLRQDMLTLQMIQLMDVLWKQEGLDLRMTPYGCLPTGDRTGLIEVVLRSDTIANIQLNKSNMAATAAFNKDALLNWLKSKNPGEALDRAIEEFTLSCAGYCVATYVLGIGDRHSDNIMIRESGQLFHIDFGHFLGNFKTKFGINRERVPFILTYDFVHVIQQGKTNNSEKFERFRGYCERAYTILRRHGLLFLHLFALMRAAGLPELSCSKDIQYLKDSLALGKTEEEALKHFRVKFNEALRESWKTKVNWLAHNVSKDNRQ
PI3Kδ (p110δ/p85α) Recombinant Human Protein, sequence (P27986 whole entry partner): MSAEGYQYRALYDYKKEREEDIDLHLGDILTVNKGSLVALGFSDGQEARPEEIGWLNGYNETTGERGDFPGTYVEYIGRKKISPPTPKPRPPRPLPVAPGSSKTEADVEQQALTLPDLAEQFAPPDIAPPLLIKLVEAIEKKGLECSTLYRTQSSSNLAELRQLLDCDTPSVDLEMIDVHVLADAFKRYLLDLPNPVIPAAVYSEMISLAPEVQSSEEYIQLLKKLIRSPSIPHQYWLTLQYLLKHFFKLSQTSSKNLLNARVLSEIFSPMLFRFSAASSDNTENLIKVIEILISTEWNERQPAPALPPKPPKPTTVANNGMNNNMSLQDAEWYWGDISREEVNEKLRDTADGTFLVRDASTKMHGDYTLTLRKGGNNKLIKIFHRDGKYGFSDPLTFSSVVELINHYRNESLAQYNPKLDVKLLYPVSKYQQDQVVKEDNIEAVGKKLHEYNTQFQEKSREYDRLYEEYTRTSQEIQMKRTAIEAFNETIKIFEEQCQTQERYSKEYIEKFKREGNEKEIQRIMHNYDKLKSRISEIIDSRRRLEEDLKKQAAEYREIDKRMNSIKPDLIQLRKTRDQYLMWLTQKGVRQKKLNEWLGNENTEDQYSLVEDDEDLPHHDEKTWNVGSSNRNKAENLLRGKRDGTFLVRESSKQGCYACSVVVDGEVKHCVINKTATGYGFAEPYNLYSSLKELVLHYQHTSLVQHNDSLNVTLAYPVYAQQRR

Take “3-(4-Amino-2-(trifluoromethyl)imidazo[2,1- f][1,2,4]triazin-7-yl)-N-(3- (hydroxymethyl)bicyclo[2.1.1]pentan-1-yl)-4-(methyl- d3)benzenesulfonamide trifluoroacetate salt [Example 420]”: the pIC50 in test [1] is 6.30 to 7.00; in test [2], more than 7.00; in test [3], 6.30 to 7.00.
As to `Cc1ccc(S(=O)(=O)N[C@H]2CC[C@H](O)CC2)cc1-c1cnc2c(N)c(Cl)ccn12` [Example 11, 3-(8-Amino-7-chloroimidazo[1,2-a]pyridin-3-yl)-N-(trans-4-hydroxycyclohexyl)-4-methylbenzenesulfonamide trifluoroacetate], the results for the pIC50 in test [1] (Homo sapiens), in test [2] and in test [3] were more than 7.00, more than 7.00 and 5.70 to 6.30, respectively.
Turning to `Cc1cc(Cl)c(S(=O)(=O)N[C@H]2CC[C@](C)(O)CC2)cc1-c1cnc2c(N)nc(C(F)(F)F)nn12` [Example 410, 5-(4-Amino-2-(trifluoromethyl)imidazo[1,2-f][1,2,4]triazin-7-yl)-2-chloro-N-((1r,4r)-4-hydroxy-4-methylcyclohexyl)-4-methylbenzenesulfonamide trifluoroacetate salt], the pIC50 in test [1], in test [2] and in test [3] was more than 7.00 each time.
With `Cc1ccc(S(=O)(=O)N[C@H]2CC[C@H](O)CC2)cc1-c1cnc2c(N)nc(-c3ccc(F)cc3)cn12` [Example 20, 3-[8-Amino-6-(4-fluorophenyl)imidazo[1,2-a]pyrazin-3-yl]-N-(trans-4-hydroxycyclohexyl)-4-methylbenzenesulfonamide], the pIC50 in test [1] (Homo sapiens), in test [2] and in test [3] was more than 7.00 throughout.
`CC(=O)N[C@H]1CC[C@H](NS(=O)(=O)c2ccc(C)c(-c3cnc4c(N)ncnn34)c2)CC1` [Example 74, N-[trans-4-({[3-(4-Aminoimidazo[2,1-f][1,2,4]triazin-7-yl)-4-methylphenyl]sulfonyl}amino)cyclohexyl]acetamide]: the results for the pIC50 in test [1] (Homo sapiens), in test [2] and in test [3] were less than 6.00, more than 7.00 and 5.70 to 6.30, respectively.
The corresponding values for `Cc1ccc(S(=O)(=O)NC23COC(C)(C2)C3)cc1-c1cnc2c(N)nc(C(F)(F)F)cn12` [Example 425, 3-(8-Amino-6-(trifluoromethyl)imidazo[1,2-a]pyrazin-3-yl)-4-methyl-N-(1-methyl-2-oxabicyclo[2.1.1]hexan-4-yl)benzenesulfonamide trifluoroacetate salt] are more than 7.00, more than 7.00 and 6.30 to 7.00.
Take `Cc1ccc(S(=O)(=O)NC23CCC(CO)(C2)C3)cc1-c1cnc2c(N)ncnn12` [Example 107, 3-(4-Aminoimidazo[1,2-f][1,2,4]triazin-7-yl)-N-(4-(hydroxymethyl)bicyclo[2.1.1]hexan-1-yl)-4-methylbenzenesulfonamide trifluoroacetate salt]: the negative-log IC50 (pIC50) is 6.00 to 6.30 in test [1], more than 7.00 in test [2] and 6.30 to 7.00 in test [3].
As to `Cc1ccc(S(=O)(=O)NC23CCC(C(N)=O)(C2)C3)cc1-c1cnc2c(N)nc(C(F)(F)F)cn12` [Example 291, 4-(3-(8-Amino-6-(trifluoromethyl)imidazo[1,2-a]pyrazin-3-yl)-4-methylphenylsulfonamido)bicyclo[2.1.1]hexane-1-carboxamide trifluoroacetate salt], the pIC50 is 6.00 to 6.30 in test [1] (Homo sapiens), more than 7.00 in test [2] and 6.30 to 7.00 in test [3].
On to `CC(=O)N[C@H]1CC[C@H](NS(=O)(=O)c2ccc(C)c(-c3cnc4c(N)nccn34)c2)CC1` [Example 59, N-[trans-4-({[3-(8-Aminoimidazo[1,2-a]pyrazin-3-yl)-4-methylphenyl]sulfonyl}amino)cyclohexyl]acetamide], for which the results for the pIC50 in test [1] (Homo sapiens), in test [2] and in test [3] were less than 6.00, more than 7.00 and 5.70 to 6.30, respectively.
`Cc1ccc(S(=O)(=O)N[C@H]2CC[C@H](O)CC2)cc1-c1cnc2c(N)nccn12` [Example 13, 3-(8-Aminoimidazo[1,2-a]pyrazin-3-yl)-N-(trans-4-hydroxycyclohexyl)-4-methylbenzenesulfonamide]: the pIC50 in test [1] (Homo sapiens) was 6.30 to 7.00; in test [2] it was more than 7.00; in test [3] it was 6.30 to 7.00.
As to `O=C(O)C(F)(F)F.[2H]C([2H])([2H])c1ccc(S(=O)(=O)NC23CC(CO)(C2)C3)cc1-c1cnc2c(N)nc(C(F)(F)F)cn12` [Example 391, 3-(8-Amino-6-(trifluoromethyl)imidazo[1,2-a]pyrazin-3-yl)-N-(3-(hydroxymethyl)bicyclo[1.1.1]pentan-1-yl)-4-(methyl-d3)benzenesulfonamide trifluoroacetate salt], the figures for the pIC50 in test [1] (Homo sapiens), in test [2] and in test [3] were more than 7.00, more than 7.00 and 6.30 to 7.00, respectively.
Consider `Cc1nc(N)c2ncc(-c3cc(S(=O)(=O)NC45CCC(C#N)(C4)C5)ccc3C)n2n1` [Example 265, 3-(4-Amino-2-methylimidazo[1,2-f][1,2,4]triazin-7-yl)-N-(4-cyanobicyclo[2.1.1]hexan-1-yl)-4-methylbenzenesulfonamide trifluoroacetate salt], for which the pIC50 in test [1], in test [2] and in test [3] was more than 7.00 throughout.
In the case of `Cc1ccc(S(=O)(=O)NC23CC(F)(C2)C3)cc1-c1cnc2c(N)nc(C(F)(F)F)cn12` [Example 285, 3-(8-Amino-6-(trifluoromethyl)imidazo[1,2-a]pyrazin-3-yl)-N-(3-fluorobicyclo[1.1.1]pentan-1-yl)-4-methylbenzenesulfonamide trifluoroacetate salt], the results for the pIC50 in test [1] (Homo sapiens), in test [2] and in test [3] were 6.30 to 7.00, more than 7.00 and 6.30 to 7.00, respectively.
Turning to `Cc1c(F)cc(S(=O)(=O)NC23CCC(C#N)(C2)C3)cc1-c1cnc2c(N)nc(C(F)(F)F)cn12` [Example 397, 3-(8-Amino-6-(trifluoromethyl)imidazo[1,2-a]pyrazin-3-yl)-N-(4-cyanobicyclo[2.1.1]hexan-1-yl)-5-fluoro-4-methylbenzenesulfonamide trifluoroacetate salt], the pIC50 in test [1] (Homo sapiens) was more than 7.00; in test [2], more than 7.00; in test [3], 6.30 to 7.00.
As to `Cc1ccc(S(=O)(=O)N[C@H]2CC[C@H](O)CC2)cc1-c1cnc2c(N)nc(-c3ccnn3C)cn12` [Example 28, 3-[8-Amino-6-(1-methyl-1H-pyrazol-5-yl)imidazo[1,2-a]pyrazin-3-yl]-N-(trans-4-hydroxycyclohexyl)-4-methylbenzenesulfonamide], the pIC50 in test [1] (Homo sapiens) was 6.30 to 7.00; in test [2], more than 7.00; in test [3], 6.30 to 7.00.
For `Cc1ccc(S(=O)(=O)NC23CCC(CC#N)(CC2)C3)cc1-c1cnc2c(N)ncnn12` [Example 430, 3-(4-Aminoimidazo[1,2-f][1,2,4]triazin-7-yl)-N-((1s,4s)-4-(cyanomethyl)bicyclo[2.2.1]heptan-1-yl)-4-methylbenzenesulfonamide trifluoroacetate salt], the pIC50 was 6.30 to 7.00 in test [1] (Homo sapiens), more than 7.00 in test [2] and 6.30 to 7.00 in test [3].
`C[C@]1(O)CC[C@H](NS(=O)(=O)c2cc(-c3cnc4c(N)ncnn34)ccc2F)CC1` [Example 376, 5-(4-aminoimidazo[2,1-f][1,2,4]triazin-7-yl)-2-fluoro-N-((1r,4r)-4-hydroxy-4-methylcyclohexyl)benzenesulfonamide]: the pIC50 in test [1] was less than 6.00; in test [2], more than 7.00; in test [3], 6.30 to 7.00.
In the case of `[2H]C([2H])([2H])c1ccc(S(=O)(=O)N2CCCC(CO)C2)cc1-c1cnc2c(N)nc(C(F)(F)F)cn12` (stereo not drawn) [Example 409, (1-((3-(8-Amino-6-(trifluoromethyl)imidazo[1,2-a]pyrazin-3-yl)-4-(methyl-d3)phenyl)sulfonyl)piperidin-3-yl)methanol], the pIC50 in test [1] (Homo sapiens) is 6.30 to 7.00; in test [2], more than 7.00; in test [3], 6.30 to 7.00.
`Cc1ccc(S(=O)(=O)N(C)C23CC(N)(C2)C3)cc1-c1cnc2c(N)ncnn12` [Example 118, N-(3-aminobicyclo[1.1.1]pentan-1-yl)-3-(4-aminoimidazo[1,2-f][1,2,4]triazin-7-yl)-N,4-dimethylbenzenesulfonamide trifluoroacetate salt]: the pIC50 was less than 6.00 in test [1], more than 7.00 in test [2] and 6.30 to 7.00 in test [3].
Consider `Cc1ccc(S(=O)(=O)NC23CC(Cn4cccn4)(C2)C3)cc1-c1cnc2c(N)ncnn12` [Example 92, N-(3-((1H-pyrazol-1-yl)methyl)bicyclo[1.1.1]pentan-1-yl)-3-(4-aminoimidazo[1,2-f][1,2,4]triazin-7-yl)-4-methylbenzenesulfonamide trifluoroacetate salt], for which the results for the pIC50 in test [1], in test [2] and in test [3] were more than 7.00, more than 7.00 and 6.30 to 7.00, respectively.
Regarding `Cc1ccc(S(=O)(=O)N[C@]2(C)CC[C@@H](O)CC2)cc1-c1cnc2c(N)ncnn12` [Example 127, 3-(4-aminoimidazo[2,1-f][1,2,4]triazin-7-yl)-N-(trans-4-hydroxy-1-methylcyclohexyl)-4-methylbenzenesulfonamide], the pIC50 was 6.30 to 7.00 in test [1], more than 7.00 in test [2] and 5.70 to 6.30 in test [3].
